Measurements reported in the supplement of paper PMC10307832.

Tests used:
Experiment in all cases: relative viability (nuclei count vs DMSO), 5 days (fraction); higher = more cells survive
CX-5461 + OSI-027 = compound: Cc1cnc(CNC(=O)c2c(=O)c3ccc(N4CCCN(C)CC4)nc3n3c2sc2ccccc23)cn1 [CX-5461] + COc1cccc2cc(-c3nc([C@H]4CC[C@H](C(=O)O)CC4)n4ncnc(N)c34)[nH]c12 [OSI-027] (partner 0.5 µM)
Outline: (§1)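 A single step with final 0.05% Triton X-100, 1% formaldehyde and 1 ug/ml Hoechst fixed the cells and stained nuclei 5 days after treatment. Lung cancer cell lines in 1536-well plates had been treated by pin tool the day after seeding with one drug alone or a fixed anchor-drug dose plus five library-drug doses (not always all listed) in √10 steps, and nuclei were counted on 4× images. Relative viability is the ratio of nuclei in treated wells to nuclei in vehicle wells, taken as the median of duplicate plates.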

CX-5461 + Tozasertib = compound: Cc1cnc(CNC(=O)c2c(=O)c3ccc(N4CCCN(C)CC4)nc3n3c2sc2ccccc23)cn1 [CX-5461] + Cc1cc(Nc2cc(N3CCN(C)CC3)nc(Sc3ccc(NC(=O)C4CC4)cc3)n2)n[nH]1 [Tozasertib] (partner 0.1 µM)
Outline: as §1

CX-5461 + AZD7762 = compound: Cc1cnc(CNC(=O)c2c(=O)c3ccc(N4CCCN(C)CC4)nc3n3c2sc2ccccc23)cn1 [CX-5461] + NC(=O)Nc1cc(-c2cccc(F)c2)sc1C(=O)N[C@H]1CCCNC1 [AZD7762] (partner 0.2 µM)
Outline: as §1

IMD-0354 + Alpelisib = compound: O=C(Nc1cc(C(F)(F)F)cc(C(F)(F)F)c1)c1cc(Cl)ccc1O [IMD-0354] + Cc1nc(NC(=O)N2CCC[C@H]2C(N)=O)sc1-c1ccnc(C(C)(C)C(F)(F)F)c1 [Alpelisib] (partner 2 µM)
Outline: as §1

Cell Line	relative viability (CX-5461 + OSI-027; first compound 0.01 µM)	relative viability (CX-5461 + OSI-027; first compound 0.03162 µM)	relative viability (CX-5461 + OSI-027; first compound 0.1 µM)	relative viability (CX-5461 + OSI-027; first compound 0.3162 µM)	relative viability (CX-5461 + OSI-027; first compound 1 µM)	relative viability (CX-5461 + Tozasertib; first compound 0.01 µM)	relative viability (CX-5461 + Tozasertib; first compound 0.03162 µM)	relative viability (CX-5461 + Tozasertib; first compound 0.1 µM)	relative viability (CX-5461 + Tozasertib; first compound 0.3162 µM)	relative viability (CX-5461 + Tozasertib; first compound 1 µM)	relative viability (CX-5461 + AZD7762; first compound 0.01 µM)	relative viability (CX-5461 + AZD7762; first compound 0.03162 µM)	relative viability (CX-5461 + AZD7762; first compound 0.1 µM)	relative viability (CX-5461 + AZD7762; first compound 0.3162 µM)	relative viability (CX-5461 + AZD7762; first compound 1 µM)	relative viability (IMD-0354 + Alpelisib; first compound 0.04 µM)	relative viability (IMD-0354 + Alpelisib; first compound 0.1265 µM)	relative viability (IMD-0354 + Alpelisib; first compound 0.4 µM)	relative viability (IMD-0354 + Alpelisib; first compound 1.265 µM)	relative viability (IMD-0354 + Alpelisib; first compound 4 µM)
NCI-H1993	0.562	0.591	0.625	0.511	0.448	0.614	0.585	0.566	0.599	0.556	0.754	0.893	0.716	0.81	0.78	0.762	0.695	0.581	0.487	0.514
NCI-H1734	0.586	0.646	0.706	0.499	0.445	0.261	0.293	0.266	0.209	0.238	0.583	0.602	0.317	0.327	0.286	0.944	0.786	0.422	0.452	0.254
HOP-62	0.824	0.941	0.83	0.93	0.594	0.315	0.405	0.372	0.284	0.344	0.643	0.854	0.424	0.194	0.356	0.839	1.2	0.896	0.837	0.178
LOU-NH91	0.756	0.728	0.714	–	0.727	0.75	0.729	0.648	–	0.632	0.787	0.758	0.74	0.475	0.693	0.755	0.729	0.541	0.244	0.231
PC-14	0.927	1.01	0.85	0.729	0.236	0.71	0.642	0.618	0.293	0.492	0.393	0.455	0.351	0.407	0.227	1.13	0.681	0.587	0.525	0.219
NCI-H1437	0.912	0.869	–	0.841	0.662	0.404	0.459	–	0.367	0.366	1.1	1.05	1.11	1.09	1.04	1.24	1.07	0.711	0.219	0.239
NCI-H460	0.573	0.541	–	0.684	0.0247	0.523	0.584	0.462	0.227	0.0722	0.627	0.513	0.295	0.563	0.046	0.544	0.49	0.2	0.0672	0.0154
NCI-H1666	0.894	0.875	0.664	0.756	0.636	0.629	0.609	0.488	0.534	0.406	0.796	0.912	0.728	0.856	0.69	0.982	0.961	0.966	0.208	0.196
NCI-H1651	0.61	0.62	–	0.458	0.131	0.7	0.465	–	0.505	0.106	0.48	0.491	0.328	0.588	0.143	1.17	0.987	0.584	0.266	0.0691
NCI-H1755	0.732	0.736	0.713	0.646	0.655	0.49	0.568	0.565	0.529	0.467	0.453	0.447	0.38	0.413	0.406	0.964	0.562	0.43	0.57	0.222
HARA	0.616	0.572	0.423	–	0.319	0.137	0.115	0.138	–	0.189	0.318	0.234	0.361	0.202	0.294	0.942	0.724	0.503	0.141	0.169
NCI-H596	0.711	0.737	0.775	0.715	0.591	0.866	1.04	0.984	0.863	0.796	1.07	1.01	0.965	1.07	0.515	0.484	0.458	0.466	0.528	0.326
NCI-H23	0.672	0.757	0.546	0.544	0.343	0.311	0.429	0.334	0.362	0.568	0.23	0.224	0.186	0.212	0.167	0.802	0.695	0.412	0.435	0.243
LCLC-97TM1	0.483	0.591	0.49	–	0.484	0.269	0.26	0.218	–	0.208	0.279	0.424	0.177	–	0.237	–	0.272	0.245	0.207	0.113
EPLC-272H	0.259	0.288	0.297	–	0.31	0.22	0.381	0.33	–	0.477	0.208	0.25	0.215	–	0.259	1.04	0.893	0.648	0.842	0.374
NCI-H1915	0.664	0.692	0.601	0.599	0.605	0.426	0.471	0.417	0.312	0.426	0.75	0.74	0.643	0.673	0.608	0.926	1.05	0.854	0.612	0.214
NCI-H2405	0.607	0.639	0.717	0.632	0.616	0.746	0.882	0.702	0.549	0.544	0.783	0.66	0.705	0.821	0.414	0.961	0.835	0.609	0.306	0.163
